Square brackets hold non-standard residues; d marks the D form. Peptide text beside a SMILES is read from it. hArg = N=C(N)NCCCC[C@H](N)C(=O)O; Aib = CC(C)(N)C(=O)O
What was measured:
human PTHR1 (R0) = target: T1, human PTHR1 (R0) (Homo sapiens, UniProt Q03431); experiment: Competition binding, R0 conformation of human PTHR1 (COS-7 membranes, 125I-PTH(1-34) tracer, GTPγS); settings: FIG. 5A
T1 construct: expressed in transfected cells; host or cells: COS-7 cells (membranes)
T1 sequence (Q03431 27-593): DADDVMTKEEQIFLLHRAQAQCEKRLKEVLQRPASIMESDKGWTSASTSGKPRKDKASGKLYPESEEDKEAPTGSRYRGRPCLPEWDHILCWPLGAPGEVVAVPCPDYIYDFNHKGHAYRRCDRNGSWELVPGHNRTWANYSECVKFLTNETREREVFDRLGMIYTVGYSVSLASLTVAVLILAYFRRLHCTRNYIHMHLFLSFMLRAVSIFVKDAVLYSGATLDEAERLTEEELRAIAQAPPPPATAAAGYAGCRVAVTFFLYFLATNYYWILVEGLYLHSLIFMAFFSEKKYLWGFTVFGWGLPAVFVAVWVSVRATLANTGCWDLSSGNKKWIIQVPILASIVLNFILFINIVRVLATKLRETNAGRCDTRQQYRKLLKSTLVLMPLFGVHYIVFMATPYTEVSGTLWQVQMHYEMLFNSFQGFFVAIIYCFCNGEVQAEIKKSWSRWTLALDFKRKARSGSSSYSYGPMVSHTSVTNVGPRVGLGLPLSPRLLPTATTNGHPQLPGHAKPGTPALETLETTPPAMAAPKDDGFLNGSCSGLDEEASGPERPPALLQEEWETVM
Protocol: (§1) Briefly, the R^0 form of the receptor can be favored by addition of the non-hydrolyzable nucleotide analog GTPγS. The RG form can be favored, for example, by co-transfection of cells with a negative dominant Gαs subunit. […] Data are means of four experiments, each performed in duplicate. Curves were fit to the data using Graph-Pad Prism 4.0.
(§2) Here, competition binding assays for the R^0 and RG PTHR1 conformation were performed in membranes prepared from transfected COS-7 cells, as described by Dean et al., Mol Endocrinol 22:156-66, 2008. Data are means of three experiments, each performed in duplicate. Curves were fit to the data using Graph-Pad Prism 4.0.

human PTHR1 (RG) = target: T2, human PTHR1 (RG) (Homo sapiens, UniProt Q03431); experiment: Competition binding, RG conformation of human PTHR1 (COS-7 membranes); settings: mean of 3 experiments, read-out: Binding human PTHR1 IC50 (Log M) RG (converted)
T2 construct: expressed in transfected cells; host or cells: COS-7 cells (membranes)
T2 sequence (Q03431 27-593): T1 sequence (Q03431 27-593)
Protocol: as §1, §2

rat PTHR1 (R0) = target: T3, rat PTHR1 (R0) (Rattus norvegicus, UniProt P25961); experiment: Competition binding, R0 conformation of rat PTHR1; settings: R0 conformation; read-out: Binding rat PTHR1 IC50 nM R0
T3 sequence (P25961 27-591): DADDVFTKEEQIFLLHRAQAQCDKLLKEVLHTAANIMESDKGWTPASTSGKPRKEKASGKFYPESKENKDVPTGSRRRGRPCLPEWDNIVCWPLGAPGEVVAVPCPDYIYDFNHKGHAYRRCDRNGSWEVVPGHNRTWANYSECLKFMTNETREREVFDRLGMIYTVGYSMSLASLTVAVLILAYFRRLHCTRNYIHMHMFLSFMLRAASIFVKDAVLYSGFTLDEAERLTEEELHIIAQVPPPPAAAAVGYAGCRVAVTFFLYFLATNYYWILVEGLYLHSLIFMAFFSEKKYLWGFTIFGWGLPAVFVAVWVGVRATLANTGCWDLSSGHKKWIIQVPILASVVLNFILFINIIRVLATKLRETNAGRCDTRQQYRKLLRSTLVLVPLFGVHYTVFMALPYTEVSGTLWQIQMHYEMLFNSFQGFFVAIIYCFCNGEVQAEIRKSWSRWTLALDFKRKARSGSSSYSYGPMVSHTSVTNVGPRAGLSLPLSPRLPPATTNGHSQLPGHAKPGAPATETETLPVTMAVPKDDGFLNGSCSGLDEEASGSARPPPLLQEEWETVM
Description: as §1

rat PTHR1 (RG) = target: T4, rat PTHR1 (RG) (Rattus norvegicus, UniProt P25961); experiment: Competition binding, RG conformation of rat PTHR1; settings: FIG. 1B
T4 construct: expressed in transfected cells
T4 sequence (P25961 27-591): T3 sequence (P25961 27-591)
Description: as §1

MC3T3-E1 cells [1] = experiment: cAMP RIA in intact MC3T3-E1 cells; assay type: cell-based, mouse; settings: 30 min, room temperature, IBMX
Protocol: cAMP stimulating activity of these polypeptides was also assessed, using two different methods: a radioimmunoassay (RIA; FIG. 2) and a cAMP responsive element fused to a luciferase gene (FIG. 3). Briefly, the RIA cAMP assays were performed in intact MC3T3-E1 cells, a mouse pre-osteoblastic cell line, in 96-well plates, as described by Okazaki et al. (Proc Natl Acad Sci USA 105:16525-30, 2008). […] The cAMP contents of the HCl lysates were then determined by RIA. Data are means of six experiments, each performed in duplicate. Curves were fit to the data using Graph-Pad Prism 4.0.

MC3T3-E1 cells [2] = experiment: cAMP response following ligand wash-out in MC3T3-E1 cells; assay type: cell-based, mouse; settings: 100 nM ligand 5 min, then wash-out; FIGS. 7A, 7B
Protocol: Cells were treated at room temperature with vehicle or the indicated ligand (100 nM) for five minutes; for each ligand duplicate wells were used to obtain the initial (maximum cAMP values); in these wells, cells were co-incubated with ligand and IBMX. After five minutes of initial treatment, the buffer was removed, and, for the initial wells, the reactions were terminated by addition of 50 mM HCl. In the other wells, the cells were rinsed three times with buffer, and incubated in buffer for varying times, as indicated on the abscissa; after which the buffer was replaced by a buffer containing IBMX, and the cells were incubated for another five minutes. After that, the buffer was removed and the reactions were terminated by addition of 50 mM HCl. The cAMP contents of the HCl lysates were then determined by RIA.

[3] = Blood Ca++ responses in mice; assay type: in vivo, mice (C57 BL/6); settings: 5 nmol/kg s.c., 4, 6, 8 and 24 hours
Protocol: Blood Ca^++ responses in mice were also assayed. Mice (C57 BL/6) were injected subcutaneously with either vehicle or the indicated ligand to give a final dose of 5 nmol/kg body weight, and blood was withdrawn via the tail at times after injection and assessed for Ca^++ concentration using a Bayer Rapid Lab model 348 blood analyzer. […] A similar experiment using 10 nmol/kg by intravenous injection was also conducted with similar results (FIGS. 8C and 8D).

[4] = Solubility, in vitro precipitation assay (PBS pH 7.4 vs 10 mM acetic acid); assay type: physicochemical; settings: pH 7.4
Protocol: The relative solubilities of SP-PTH-AAK (SEQ ID NO:4) and SP-PTH (SEQ ID NO:11) in different buffers were assessed in an in vitro precipitation assay. For each polypeptide, two vials, each containing 50 μg of lyophilized polypeptide powder, were prepared; one vial was reconstituted in 50 μl of PBS at pH 7.4; the other vial was reconstituted in 50 μl of 10 mM acetic acid (pH 2.9) to give final concentrations of 1.0 mg/ml […]. After one hour at room temperature, the vials were centrifuged at 15,000×g for 2 minutes. The supernatant was removed and the protein content assayed using the Pierce BCA assay (Thermo Fischer Scientific, Rockford, Ill.). For each polypeptide, the content of the PBS sample was expressed as percent of the content of the corresponding acetic acid sample.

## CC[C@H](C)[C@H](NC(=O)[C@H](CCC(=O)O)NC(=O)[C@H](C)NC(=O)[C@@H](NC(=O)[C@H](Cc1c[nH]cn1)NC(=O)[C@@H](NC(=O)[C@H](CCC(=O)O)NC(=O)[C@H](C)NC(=O)[C@@H](NC(=O)[C@H](CC(C)C)NC(=O)[C@H](CCCCN)NC(=O)[C@H](Cc1c[nH]cn1)NC(=O)[C@H](CC(C)C)NC(=O)[C@H](Cc1ccccc1)NC(=O)[C@H](C)NC(=O)[C@H](CCCNC(=N)N)NC(=O)[C@H](CCCNC(=N)N)NC(=O)[C@H](CCCNC(=N)N)NC(=O)[C@H](C)NC(=O)[C@H](CC(=O)O)NC(=O)[C@H](CCC(N)=O)NC(=O)[C@@H](NC(=O)[C@H](Cc1c[nH]c2ccccc12)NC(=O)[C@H](CCCCN)NC(=O)[C@H](C)NC(=O)[C@H](CCCCNC(=N)N)NC(=O)[C@H](CCC(N)=O)NC(=O)[C@H](Cc1c[nH]cn1)NC(=O)[C@H](CCSC)NC(=O)[C@H](CC(C)C)NC(=O)[C@H](CCC(N)=O)NC(=O)[C@@H](NC(=O)[C@H](CCC(=O)O)NC(=O)C(C)(C)NC(=O)[C@@H](NC(=O)[C@H](C)N)C(C)C)[C@@H](C)CC)[C@@H](C)CC)[C@@H](C)CC)[C@@H](C)CC)[C@@H](C)O)C(N)=O [AIB-SP-PTH-AAK, [Ala^1,12,18,22,Aib^3,Gln^10,Har^11,Trp^14,Lys^26]PTH(1-14)/PTHrP(15-36)] (H-AV[Aib]EIQLMHQ[hArg]AKWIQDARRRAFLHKLIAEIHTAEI-NH2; N-terminus assumed)
Human PTHR1 (R0)
  R0 binding at human PTH receptor as compared to PTH(1-34): enhanced R^0 binding
Human PTHR1 (RG)
  IC50: 0.372 nM
Rat PTHR1 (R0)
  IC50: 0.7 nM
Rat PTHR1 (RG)
  binding to RG form of rat PTHR1, comparison in words: increased
MC3T3-E1 cells [1]
  EC50: 0.018 nM
  cAMP MC3T3-E1 cells Emax (pmole/well): 57.9 ± 13.9 pmole/well
MC3T3-E1 cells [1]; 6 experiments
  cAMP MC3T3-E1 cells EC50 (Log M): −10.7 ± 0.1 Log M
MC3T3-E1 cells [2]
  cAMP-stimulating activity after ligand wash-out: maintained cAMP-stimulating activity for longer periods of time than PTH(1-34)
[3]
  blood calcium levels at later time points vs PTH(1-34) or vehicle: increased
[4]
  solubility in PBS pH 7.4 (percent of acetic acid sample), in words: solubility similar to hPTH(1-34)NH2

Source: patent US9492508B2, “Parathyroid hormone analogs and uses thereof” (The General Hospital Corporation, priority 2010, dated 2016)
